Experimental data taken from patent US8912207B2, “2-aldoximino-5-fluoropyrimidine derivatives” (Dow AgroSciences, LLP., priority 2009, dated 2014).
Like-named read-outs stand apart in the source and are kept apart here.

Experiments:
[1] = tested on: Mycosphaerella graminicola; anamorph: Septoria tritici; Bayer code SEPTTR; experiment: Fungicidal activity: leaf blotch of wheat, one-day protectant (1DP) and three-day curative (3DC) tests on wheat plants; type: in vivo, Septoria tritici on wheat plants (variety Yuma); settings: Zymoseptoria tritici, rating of % disease control vs untreated inoculated plants
Description: Evaluation of Fungicidal Activity: Leaf Blotch of Wheat (Mycosphaerella graminicola; anamorph: Septoria tritici; Bayer code […]) Wheat plants (variety Yuma) were grown from seed in a greenhouse in 50% mineral soil/50% soil-less Metro mix until the first leaf was fully emerged, with 7-10 seedlings per pot. These plants were inoculated with an aqueous spore suspension of Septoria tritici either prior to or after fungicide treatments. After inoculation the plants were kept in 100% relative humidity (one day in a dark dew chamber followed by two to three days in a lighted dew chamber) to permit spores to germinate and infect the leaf. The plants were then transferred to a greenhouse for disease to develop. The following table presents the activity of typical compounds of the present disclosure when evaluated in these experiments. The effectiveness of the test compounds in controlling disease was determined by assessing the severity of disease on treated plants, then converting the severity to percent control based on the level of disease on untreated, inoculated plants. In each case of Table III the rating scale is as follows: […]

[2] = 24 h, one-day protectant, read-out: SEPTTR 25 ppm 1DP
[3] = 24 h, one-day protectant, read-out: SEPTTR 100 ppm 1DP
[4] = 72 h, three-day curative, read-out: SEPTTR 25 ppm 3DC
[5] = 72 h, three-day curative, read-out: SEPTTR 100 ppm 3DC

Structure (SMILES) | pest or weed control at 25 ppm [1, 2] [%] | pest or weed control at 100 ppm [1, 3] [%] | pest or weed control at 25 ppm [1, 4] [%] | pest or weed control at 100 ppm [1, 5] [%] | melting point
Fc1ccccc1CNc1nc(ON=Cc2ccc(Cl)cc2)ncc1F [Compound 18] | 76 to 100 | 76 to 100 | 0 to 25 | 0 to 25 | 98 to 103 °C
CC=NOc1ncc(F)c(NCc2ccccc2F)n1 [Compound 20] | 26 to 50 | 51 to 75 | 51 to 75 | 76 to 100 | 99 to 100 °C
Fc1cnc(ON=Cc2ccccc2)nc1NCc1ccccc1 [Compound 21] | 0 to 25 | 76 to 100 | 51 to 75 | 76 to 100 | 111 to 113 °C
Fc1cnc(ON=Cc2ccc(Cl)cc2)nc1NCc1ccccc1 [Compound 22] | 0 to 25 | 76 to 100 | 0 to 25 | 0 to 25 | 111 to 114 °C
COc1ccc(C=NOc2ncc(F)c(NCc3ccccc3)n2)cc1 [Compound 23] | 0 to 25 | 76 to 100 | 26 to 50 | 26 to 50 | 180 to 194 °C
Fc1cnc(ON=Cc2ccccc2)nc1NCc1ccc(Cl)cc1 [Compound 26] | 0 to 25 | 0 to 25 | 26 to 50 | 26 to 50 | 127 to 128 °C
Fc1cnc(ON=Cc2ccc(Cl)cc2)nc1NCc1ccc(Cl)cc1 [Compound 27] | 0 to 25 | 26 to 50 | 26 to 50 | 51 to 75 | 119 to 121 °C
COc1ccc(C=NOc2ncc(F)c(NCc3ccc(Cl)cc3)n2)cc1 [Compound 28] | 0 to 25 | 26 to 50 | 0 to 25 | 0 to 25 | 141 to 142 °C
CC=NOc1ncc(F)c(NCc2ccc(Cl)cc2)n1 [Compound 29] | 0 to 25 | 26 to 50 | 0 to 25 | 51 to 75 | 116 to 117 °C
CC(C)C=NOc1ncc(F)c(NCc2ccc(Cl)cc2)n1 [Compound 30] | 0 to 25 | 26 to 50 | 0 to 25 | 26 to 50 | 200 to 205 °C
CC=NOc1ncc(F)c(NCc2ccc(OC)cc2)n1 [Compound 34] | 0 to 25 | 26 to 50 | 26 to 50 | 76 to 100 | 79 to 82 °C
CN(Cc1ccccc1)c1nc(ON=Cc2ccc(Cl)cc2)ncc1F [Compound 37] | 0 to 25 | 51 to 75 | 26 to 50 | 76 to 100 | 78 to 81 °C
COc1ccc(C=NOc2ncc(F)c(N(C)Cc3ccccc3)n2)cc1 [Compound 38] | 0 to 25 | 0 to 25 | 26 to 50 | 51 to 75 | 100 to 103 °C
CC(C)C=NOc1ncc(F)c(N(C)Cc2ccccc2)n1 [Compound 40] | 0 to 25 | 0 to 25 | 0 to 25 | 51 to 75 | 176 to 179 °C
CN(Cc1ccc(Cl)cc1)c1nc(ON=Cc2ccc(Cl)cc2)ncc1F [Compound 42] | 0 to 25 | 26 to 50 | 0 to 25 | 0 to 25 | 115 to 116 °C
CC(C)C=NOc1ncc(F)c(N(C)Cc2ccc(Cl)cc2)n1 [Compound 45] | 0 to 25 | 0 to 25 | 26 to 50 | 0 to 25 | 224 to 228 °C (dec.)
COc1ccc(CN(C)c2nc(ON=Cc3ccc(Cl)cc3)ncc2F)cc1 [Compound 47] | 26 to 50 | 26 to 50 | 26 to 50 | 51 to 75 | 79 to 83 °C
COc1ccc(C=NOc2ncc(F)c(N(C)Cc3ccc(OC)cc3)n2)cc1 [Compound 48] | 0 to 25 | 0 to 25 | 26 to 50 | 51 to 75 | 46 to 50 °C
COc1ccc(CN(C)c2nc(ON=CC(C)C)ncc2F)cc1 [Compound 50] | 0 to 25 | 0 to 25 | 26 to 50 | 26 to 50 | 110 to 112 °C
CN(C)c1nc(ON=Cc2ccccc2)ncc1F [Compound 51] | 0 to 25 | 0 to 25 | 0 to 25 | 51 to 75 | 75 to 76 °C
CN(C)c1nc(ON=Cc2ccc(Cl)cc2)ncc1F [Compound 52] | 0 to 25 | 0 to 25 | 0 to 25 | 26 to 50 | 144 to 146 °C
COc1ccc(C=NOc2ncc(F)c(N(C)C)n2)cc1 [Compound 53] | 0 to 25 | 0 to 25 | 0 to 25 | 0 to 25 | 106 to 107 °C
CC=NOc1ncc(F)c(N(C)C)n1 [Compound 54] | 0 to 25 | 0 to 25 | 0 to 25 | 0 to 25 | 122 to 124 °C
CC(C)C=NOc1ncc(F)c(N(C)C)n1 [Compound 55] | 0 to 25 | 0 to 25 | 0 to 25 | 0 to 25 | 90 to 92 °C
